Measurements: US6221906A, “Platinum complex conjugated to cyclotriphosphazene, its preparation, and anticancer agent comprising the same” (Korea Institute of Science and Technology, priority 1999, dated 2001)

What was measured:
leukemia L1210 cells = assay: anticancer activity test against mouse leukemia L1210 cells implanted in BDF1 mice; assay type: in vivo; details: intra-peritoneal, days 1, 5 and 9; for Number of survival after 60 days: of 8 mice
[1] = literature value; cited from earlier work
ICR mouse = assay: pilot acute toxicity test, single tail vein injection (LD50); assay type: in vivo; details: for Death rate: 2 animals; for deaths on day 0 after administration: of 2 animals
Protocol: A pilot acute toxicity test was performed for the compound (KI-60606) described in Example 8 of the present invention by intravenous injection.
(2) carrier: physiological saline for injection
(1) animal model: ICR mouse
(2) age of the animal: 4 weeks old when delivered, 5 weeks old when the drug was administered
(3) sex and number of animals: 12 males and 12 females
(4) breeding condition: temperature: 23 3C. relative humidity: 50 10% light intensity: 150-300 Lux
3. Number and method of administration: single tail vein injection
5. Observation categories: general symptoms, symptoms of dead animals, body weight up to seventh day after administration, autopsy finding.

Hartley guinea pigs = assay: guinea pig anaphylaxis test; assay type: in vivo
Protocol: […] The systemic symptoms were observed 30 minutes after the injection. […] However, only 2 animals administered with oligomeric platinum complex of the present invention (KI 60606: The compound in Example 8 of the present invention) had severe symptoms but none died.

[2] = male or female mice, 500 mg/kg or more
[3] = antigen 1 mg/kg, induced antigen 5 mg/kg, 4 animals
[4] = antigen 5 mg/kg, induced antigen 5 mg/kg, 4 animals

In the case of O=C1[O][Pt-2]2([NH2+]C3CCCCC3[NH2+]2)[O]C(=O)C1NP1(NC2C(=O)[O][Pt-2]3([NH2+]C4CCCCC4[NH2+]3)[O]C2=O)=NP(NC2C(=O)[O][Pt-2]3([NH2+]C4CCCCC4[NH2+]3)[O]C2=O)(NC2C(=O)[O][Pt-2]3([NH2+]C4CCCCC4[NH2+]3)[O]C2=O)=NP(NC2C(=O)[O][Pt-2]3([NH2+]C4CCCCC4[NH2+]3)[O]C2=O)(NC2C(=O)[O][Pt-2]3([NH2+]C4CCCCC4[NH2+]3)[O]C2=O)=N1 (racemic) [Example 16, [NP(Am·Pt(dach)2]3], the “Increased life span (ILS)” value (leukemia L1210 cells; 30 mg/kg) is reported as 222.1% and the “Increased life span (ILS)” value (leukemia L1210 cells; 60 mg/kg) is reported as “Toxic”.

In the case of N.N.O=C([O-])C1(C(=O)[O-])CCC1.[Pt+2] [Carboplatin, cis-(NH3)2 Pt(CBDCA), reference compound], the “Increased life span (ILS)” value (leukemia L1210 cells; 40 mg/kg) is given as 80% and the LD50 [1] is given as 180 mg/kg.

With N.N.[Cl][Pt][Cl] [Cisplatin, cis-(NH3)2 PtCl2, reference compound] the “Increased life span (ILS)” value (leukemia L1210 cells; 4 mg/kg) was 60%.

In the case of O=C1CC(NP2(NC3CC(=O)[O][Pt-2]4([NH2+]C5CCCCC5[NH2+]4)[O]C3=O)=NP(NC3CC(=O)[O][Pt-2]4([NH2+]C5CCCCC5[NH2+]4)[O]C3=O)(NC3CC(=O)[O][Pt-2]4([NH2+]C5CCCCC5[NH2+]4)[O]C3=O)=NP(NC3CC(=O)[O][Pt-2]4([NH2+]C5CCCCC5[NH2+]4)[O]C3=O)(NC3CC(=O)[O][Pt-2]4([NH2+]C5CCCCC5[NH2+]4)[O]C3=O)=N2)C(=O)[O][Pt-2]2([NH2+]C3CCCCC3[NH2+]2)[O]1 [Example 1, [NP(L-Asp·Pt(dach))2]3], the “Increased life span (ILS)” value (leukemia L1210 cells; 40 mg/kg) is reported as greater than 243.8%, the “Number of survival after 60 days” value (leukemia L1210 cells; 40 mg/kg) is reported as 1/8 and the “Increased life span (ILS)” value (leukemia L1210 cells; 60 mg/kg) is reported as greater than 448.8%. The “Number of survival after 60 days” value (leukemia L1210 cells; 60 mg/kg) was 4/8.

In the case of CC1(C)C[NH2+][Pt-2]2([NH2+]C1)[O]C(=O)C[C@H](NP1(N[C@H]3CC(=O)[O][Pt-2]4([NH2+]CC(C)(C)C[NH2+]4)[O]C3=O)=NP(N[C@H]3CC(=O)[O][Pt-2]4([NH2+]CC(C)(C)C[NH2+]4)[O]C3=O)(N[C@H]3CC(=O)[O][Pt-2]4([NH2+]CC(C)(C)C[NH2+]4)[O]C3=O)=NP(N[C@H]3CC(=O)[O][Pt-2]4([NH2+]CC(C)(C)C[NH2+]4)[O]C3=O)(N[C@H]3CC(=O)[O][Pt-2]4([NH2+]CC(C)(C)C[NH2+]4)[O]C3=O)=N1)C(=O)[O]2 [Example 2, [NP(L-Asp·Pt(dmpda))2]3], the “Increased life span (ILS)” value (leukemia L1210 cells; 30 mg/kg) is reported as 165.0% and the “Increased life span (ILS)” value (leukemia L1210 cells; 60 mg/kg) is reported as 147.9%.

In the case of O=C1C[C@H](NP2(N[C@H]3CC(=O)[O][Pt-2]4([NH2+]CC[NH2+]4)[O]C3=O)=NP(N[C@H]3CC(=O)[O][Pt-2]4([NH2+]CC[NH2+]4)[O]C3=O)(N[C@H]3CC(=O)[O][Pt-2]4([NH2+]CC[NH2+]4)[O]C3=O)=NP(N[C@H]3CC(=O)[O][Pt-2]4([NH2+]CC[NH2+]4)[O]C3=O)(N[C@H]3CC(=O)[O][Pt-2]4([NH2+]CC[NH2+]4)[O]C3=O)=N2)C(=O)[O][Pt-2]2([NH2+]CC[NH2+]2)[O]1 [Example 4, [NP(L-Asp·Pt(en))2]3], the “Increased life span (ILS)” value (leukemia L1210 cells; 30 mg/kg) is reported as 250.9% and the “Increased life span (ILS)” value (leukemia L1210 cells; 60 mg/kg) is reported as “Toxic”.

For O=C1CCC(NP2(NC3CCC(=O)[O][Pt-2]4([NH2+]C5CCCCC5[NH2+]4)[O]C3=O)=NP(NC3CCC(=O)[O][Pt-2]4([NH2+]C5CCCCC5[NH2+]4)[O]C3=O)(NC3CCC(=O)[O][Pt-2]4([NH2+]C5CCCCC5[NH2+]4)[O]C3=O)=NP(NC3CCC(=O)[O][Pt-2]4([NH2+]C5CCCCC5[NH2+]4)[O]C3=O)(NC3CCC(=O)[O][Pt-2]4([NH2+]C5CCCCC5[NH2+]4)[O]C3=O)=N2)C(=O)[O][Pt-2]2([NH2+]C3CCCCC3[NH2+]2)[O]1 [Example 8, [NP(L-Glu·Pt(dach))2]3], the Main symptoms (ICR mouse; 62.5-2000 mg/kg, single intravenous injection, ICR mice) was “prone positioning, gait disturbance, dyspnea and decrease in body weight”, the “General symptoms of dead mice” value (ICR mouse; 125 or 250 mg/kg) was “prone positioning and drooling” and the “Estimated LD50 value” (ICR mouse; female ICR mice, single intravenous injection) was 125 to 250 mg/kg. For the same molecule, the Death rate (ICR mouse; female, 62.5 mg/kg) was 0%, the “number of mice with decrease in body weight” value (ICR mouse; female, 125 mg/kg) was 2 and the Death rate (ICR mouse; female, 125 mg/kg) was 0%. The Death rate (ICR mouse; female, 250 mg/kg) was 100%, the “deaths on day 0 after administration” value (ICR mouse; female, 250 mg/kg) was 2 and the Death rate (ICR mouse; female, 500 mg/kg) was 100%. The “deaths on day 0 after administration” value (ICR mouse; female, 500 mg/kg) was 2, the Death rate (ICR mouse; female, 1000 mg/kg) was 100% and the “deaths on day 0 after administration” value (ICR mouse; female, 1000 mg/kg) was 2. The Death rate (ICR mouse; female, 2000 mg/kg) was 100%, the “deaths on day 0 after administration” value (ICR mouse; female, 2000 mg/kg) was 2 and the “Estimated LD50 value” (ICR mouse; male ICR mice, single intravenous injection) was 125 mg/kg. The General symptoms (ICR mouse; [2]) was “prone positioning, gait disturbance and dyspnea”, the “time of death after injection” value (ICR mouse; [2]) was 10 to 20 s and the “number of mice with decrease in body weight” value (ICR mouse; male, 62.5 mg/kg) was 1. For the same molecule, the Death rate (ICR mouse; male, 62.5 mg/kg) was 0%, the Death rate (ICR mouse; male, 125 mg/kg) was 50% and the “deaths on day 0 after administration” value (ICR mouse; male, 125 mg/kg) was 1. For the same molecule, the Death rate (ICR mouse; male, 250 mg/kg) was 100%, the “deaths on day 0 after administration” value (ICR mouse; male, 250 mg/kg) was 2 and the Death rate (ICR mouse; male, 500 mg/kg) was 100%. For the same molecule, the “deaths on day 0 after administration” value (ICR mouse; male, 500 mg/kg) was 2, the Death rate (ICR mouse; male, 1000 mg/kg) was 100% and the “deaths on day 0 after administration” value (ICR mouse; male, 1000 mg/kg) was 2. The Death rate (ICR mouse; male, 2000 mg/kg) was 100%, the “deaths on day 0 after administration” value (ICR mouse; male, 2000 mg/kg) was 2 and the autopsy finding (ICR mouse; mice that died immediately and mice that survived) was “No particular autopsy finding was observed”. The “General symptoms of live animals” value (ICR mouse; one day after injection) was “did not have any particular symptoms”, the “Increased life span (ILS)” value (leukemia L1210 cells; 60 mg/kg) was greater than 400% and the “Number of survival after 60 days” value (leukemia L1210 cells; 60 mg/kg) was 3/8. For the same molecule, the “Increased life span (ILS)” value (leukemia L1210 cells; 80 mg/kg) was greater than 402.8%, the “Number of survival after 60 days” value (leukemia L1210 cells; 80 mg/kg) was 3/8 and the “death in anaphylaxis test” value (Hartley guinea pigs; all dose groups) was “none died”. The “number of animals with severe symptoms” value (Hartley guinea pigs; all dose groups) was 2, the “number of animals with symptom [++] (severe)” value (Hartley guinea pigs; [3]) was 2 and the “number of animals with symptom [+] (moderate)” value (Hartley guinea pigs; [3]) was 1. The “number of animals with symptom [±] (mild)” value (Hartley guinea pigs; [3]) was 1, the “number of animals with symptom [+] (moderate)” value (Hartley guinea pigs; [4]) was 1 and the “number of animals with symptom [-] (asymptomatic)” value (Hartley guinea pigs; [4]) was 3. The “antigenicity compared with physiological saline” value (Hartley guinea pigs; compared with physiological saline solution) was “antigenicity was even less”.

With O=C1CC[C@H](NP2(N[C@H]3CCC(=O)[O][Pt-2]4([NH2+]CC[NH2+]4)[O]C3=O)=NP(N[C@H]3CCC(=O)[O][Pt-2]4([NH2+]CC[NH2+]4)[O]C3=O)(N[C@H]3CCC(=O)[O][Pt-2]4([NH2+]CC[NH2+]4)[O]C3=O)=NP(N[C@H]3CCC(=O)[O][Pt-2]4([NH2+]CC[NH2+]4)[O]C3=O)(N[C@H]3CCC(=O)[O][Pt-2]4([NH2+]CC[NH2+]4)[O]C3=O)=N2)C(=O)[O][Pt-2]2([NH2+]CC[NH2+]2)[O]1 [Example 13, [NP(L-Glu·Pt(en))2]3] the “Increased life span (ILS)” value (leukemia L1210 cells; 30 mg/kg) was 277% and the “Increased life span (ILS)” value (leukemia L1210 cells; 60 mg/kg) was “Toxic”.

In the case of O=C1[O][Pt-2]2([NH2+]CC[NH2+]2)[O]C(=O)C1NP1(NC2C(=O)[O][Pt-2]3([NH2+]CC[NH2+]3)[O]C2=O)=NP(NC2C(=O)[O][Pt-2]3([NH2+]CC[NH2+]3)[O]C2=O)(NC2C(=O)[O][Pt-2]3([NH2+]CC[NH2+]3)[O]C2=O)=NP(NC2C(=O)[O][Pt-2]3([NH2+]CC[NH2+]3)[O]C2=O)(NC2C(=O)[O][Pt-2]3([NH2+]CC[NH2+]3)[O]C2=O)=N1 (stereo not shown) [Example 18, [NP(Am·Pt(en))2]3], the “Increased life span (ILS)” value (leukemia L1210 cells; 30 mg/kg) is reported as greater than 400%, the “Number of survival after 60 days” value (leukemia L1210 cells; 30 mg/kg) is reported as 3/8 and the “Increased life span (ILS)” value (leukemia L1210 cells; 60 mg/kg) is reported as “Toxic”.

With “[NP(OH)(Glu.Pt(dach)]n [KI-30606, reference compound]” the “death due to anaphylaxis” value (Hartley guinea pigs; all animals, 30 minutes after injection) was “died due to anaphylaxis”, the “number of animals with symptom [+++] (death)” value (Hartley guinea pigs; antigen 1 mg/kg, induced antigen 5 mg/kg, 5 animals) was 5 and the “number of animals with symptom [+++] (death)” value (Hartley guinea pigs; [4]) was 4.
